Test system: pilocarpine-induced epilepsy
Experiment: Rat model of pilocarpine-induced epilepsy, seizure scoring by Racine scale
Assay type: in vivo
Details: CBD 25 mg/kg IP; cumulative Racine score over 120 min after pilocarpine 350 mg/kg
Description: Objective: The aim of the current study is to assess the effect of a new CBD formulation as seizures protection in the rat model of pilocarpine-induced epilepsy.
Study variables and endpoints: The formulation is administered IP (Intraperitoneally). The animals are assessed for: • a. Mortality & morbidity—Twice daily • b. Body weight monitoring—During acclimation and before Test Item (TI) dosing (Day 1) • c. Clinical signs—Before TI dosing, continuous follow-up during the first two hours following Pilocarpine administration. Monitoring of number and duration of seizures during 120 minutes following pilocarpine administration (Seizures rating according to Racine scale). • d. Study termination—At the end of the seizures' observation (120 minutes after Pilocarpine administration) animals are sedated with Ketamine/Xylazine mixture and are subjected to pericardial perfusion with PBS and PFA 4%, brains will be removed and stored in PFA 4% until histopathological analysis
Administration of the Test Items Each Test Item and vehicle formulation are administered to tested animals, according to Table. […]
Seizure scoring: Following model induction by Pilocarpine injection, the animals are video recorded for 2 hours. The videos are analyzed and seizures rating are recorded according to the following Racine scale below. • a. […]

SMILES: C=C(C)[C@@H]1CCC(C)=C[C@H]1c1c(O)cc(CCCCC)cc1O [CBD, Cannabidiol]
- AV-Seizure Score: 29.2

Source: patent US20230125212A1, “MEANS AND METHODS FOR ENHANCING CA[…]” (priority 2020, published 2023)
